Read-outs that look alike come from different tables or passages of the source.
Tests used:
[1] = tested on: ouabain-induced arrhythmias; test: Ouabain-induced arrhythmias in anesthetized guinea-pigs; type: in vivo; conditions: for A-A EFFECT IN NUMBER OF ANIMALS: animals with antiarrhythmic effect / animals tested; for LOWEST FREQUENCY: frequency of ventricular premature beats after test solution; for ASYSTOLE: time of asystole under continued ouabain; for V-FIB: time of ventricular fibrillation under continued ouabain
Method: Guinea-pigs of either.sex (300-400 g) were anesthetized with urethane 1,4 g/kg i.p. and tracheotomized. ECG, lead II was picked up with needle electrodes and was registered continuously throughout the experiment. Two i.v. catheters were inserted: one for the administration of ouabain, the other for the test solution.
The experimental design for the study of antiarrhythmic activities is schematically shown in the head of Table 2. The arrhythmia was induced by automatic infusion of ouabain, 18 µg/kg/60" every two minutes for twelve minutes and thereafter 9 µg/kg/30" every two minutes throughout the whole experiment and the infusion was not stopped until asystole occurred. As soon as the frequency of ventricular premature beats (VPB) had passed 50 per cent, the test solution was given i.v. (0,2 ml/min) during 2 min. (see head of Table 2).

[2] = Alternative chloroform test on mice: ventricular tachycardia inhibition and ataxia; type: in vivo; conditions: mouse, in vivo
Method: (§1) In an alternative chloroform test on mice the ventricular tachycardia inhibition by the test compounds are observed. Thereby the test solution is given subcutaneous and the animal is observed for CNS-effects for 20 min. The mouse is put into a chamber with chloroform until it stops breathing (approx 30 sec.). The animal is then secured on a cork-board and ECG is monitored. If the ventricular rythm is less than 520 beats per min., the animal was protected against ventricular tachycardia. Groups of 10 animals were tested for each dose-level'and the ED50-values have been calculated therefrom. During the test the side-effect ataxia (incordination of movements) is observed.
(§2) In Table 5, as shown, the new compounds tested exerted antiarrhythmic effects also in this te-st.

[3] = tested on: chloroform induced ventricular tachy-cardia; test: as above; type: in vivo; conditions: Mus musculus; sc.; mice, chloroform; groups of 10 animals per dose-level
Method: as §1, §2

ectopics = test: Conscious dogs with ligation of a coronary artery according to Harris: ectopics and convulsions; type: in vivo; conditions: Canis lupus familiaris, iv.; for ED50: accumulative end dose giving 50% reduction of ectopics, read-out: Conscious dog Harris ligation Ectopics -50%; for ED90: accumulative end dose giving 90% reduction of ectopics, read-out: Conscious dog Harris ligation Ectopics -90%
Text: (§3) Male beagle dogs, 7-13 kg, undergo two days prior to the test a surgical ligation of a coronary artery. On the day of the test the conscious dog is secured in a canvas sling in a standing position and given increasing doses of the test compounds by intravenous administration. ECG, blood pressure etc are monitored and attention is paid to all CNS-effects. The dogs have almost 100 percent of ectopics prior to administration of the compound to be tested. Effects of the test drug on the frequency of ectopics are calculated from ECG. The accumulative end doses giving 50% and 90% reduction of ectopics as well as the ED50 values which give convulsions (side-effect) are measured and given below in Table 3. The value for convulsions is a mean value for 3-5 dogs.
(§4) x) The value given is the final value in a series of doses 0.5 + 1 + 2 + 4 + 8 mg/kg i.v. giving 50% reduction of ectopics. 30 min interval between doses.
(§5) Table 3: Antiarrythmic effect and CNS-effects of four β-receptor blockers, a membrane stabilizer, and ten new compounds with combined β-blocking and membrane stabilizing effect.

[4] = as above; type: in vivo; conditions: in vivo
Text: as §3, §4, §5

[5] = tested on: chloroform-induced ventricular arrhythmias; test: Chloroform-induced ventricular arrhythmias (fibrillation) in mice, intraperitoneal dose; conditions: for Number of Animals Dead / Number of Animals Protected: dose 100 mg/kg intraperitoneal, 10 treated; for Number of Animals Protected: protected against CHCl3-induced ventricular fibrillation; for Number of Animals Convulsive / Number of Animals LRR: mouse, in vivo, ip, 100 mg/kg
Text: Mice were given an intraperitoneal dose of the test compound. Twenty minutes after dose, they were suffocated in chloroform vapor.- When the animals stopped breathing, the chest was opened to inspect for fibrillation. If the heart was not fibrillating, it was prodded.
Signs of CNS toxicity were noted during the 20-minute interval between dosing and challenge.
"Protected" means number of animals protected against CHC13- induced ventricular fibrillation.

[6] = sc., mice, observed for 20 min, read-out: Ataxia ED50
[7] = iv., conscious dog, mean value for 3-5 dogs, read-out: ED50 Convulsive

For `COCCc1ccc(OCC(O)CNC(C)C)cc1` (stereo not drawn) [Metoprolol], the “A-A EFFECT IN NUMBER OF ANIMALS” value ([1]; dose 0.03 mg/kg i.v.) was 6/6, the “A-A EFFECT IN NUMBER OF ANIMALS” value ([1]; dose 0.1 mg/kg i.v.) was 6/6 and the “A-A EFFECT IN NUMBER OF ANIMALS” value ([1]; dose 0.3 mg/kg i.v.) was 6/6. The “LOWEST FREQUENCY” value ([1]; dose 0.03 mg/kg i.v.) was 34±5%, the “LOWEST FREQUENCY” value ([1]; dose 0.1 mg/kg i.v.) was 16±7% and the “LOWEST FREQUENCY” value ([1]; dose 0.3 mg/kg i.v.) was 1±1%. It also gave an ASYSTOLE ([1]; dose 0.03 mg/kg i.v.) of 35 ± 4 min, an ASYSTOLE ([1]; dose 0.1 mg/kg i.v.) of 38 ± 5 min and an ASYSTOLE ([1]; dose 0.3 mg/kg i.v.) of 48 ± 6 min. For the same molecule, the V-FIB ([1]; dose 0.03 mg/kg i.v.) was 25 ± 3 min, the V-FIB ([1]; dose 0.1 mg/kg i.v.) was 32 ± 5 min and the V-FIB ([1]; dose 0.3 mg/kg i.v.) was 37 ± 3 min. The TD50 at 20 min ([2]; sc) was > 50 mg/kg, the ED50 [3] was 2.6 mg/kg and the ED50 (ectopics) was 4 mg/kg. The ED90 (ectopics) was 8 mg/kg and the TD50 ([4]; dog, iv) was > 8 mg/kg.

With `COCCc1ccc(OCC(O)CNCCOc2ccccc2)cc1` (stereo not drawn) [Ex. 13, 3-[2-phenoxyethylamino]-1-[4-(2-methoxyethyl)phenoxy]-propanol--2] the TD50 at 20 min [2, 6] was > 12 mg/kg, the ED50 [3] was 3 mg/kg and the ED50 (ectopics) was 4 mg/kg. For the same molecule, the ED90 (ectopics) was 4 mg/kg and the TD50 [4, 7] was 8 mg/kg.

In the case of `COC(=O)NCCc1ccc(OCC(O)CNC(C)C)cc1` (stereo not drawn) [Pamatolol], the “Number of Animals Dead” value [5] was 0, the “Number of Animals Protected” value [5] was 5 and the “Number of Animals Convulsive” value [5] was 0. The “Number of Animals LRR” value [5] was 0.

With `COCc1ccc(OCC(O)CNCc2ccccc2)cc1` (stereo not drawn) [Ex. 6, 3-phenylmethylamino-1-[4-methoxymgthylphenoxy]-propanol-2] the TD50 at 20 min ([2]; sc) was ~70 mg/kg, the ED50 [3] was ~200 mg/kg and the ED50 (ectopics) was 8 mg/kg. For the same molecule, the ED90 (ectopics) was > 16 mg/kg and the TD50 ([4]; dog, iv) was 14 mg/kg.

For `CCN(CC)CC(=O)Nc1c(C)cccc1C` [Lidocaine], the “A-A EFFECT IN NUMBER OF ANIMALS” value ([1]; dose 4.0 mg/kg i.v.) was 5/5, the “A-A EFFECT IN NUMBER OF ANIMALS” value ([1]; dose 12.0 mg/kg i.v.) was 5/6 and the “LOWEST FREQUENCY” value ([1]; dose 4.0 mg/kg i.v.) was 10±1%. For the same molecule, the “LOWEST FREQUENCY” value ([1]; dose 12.0 mg/kg i.v.) was 5±3%, the ASYSTOLE ([1]; dose 4.0 mg/kg i.v.) was 21 ± 1 min and the ASYSTOLE ([1]; dose 12.0 mg/kg i.v.) was 30 ± 3 min. For the same molecule, the V-FIB ([1]; dose 4.0 mg/kg i.v.) was 15 ± 2 min, the V-FIB ([1]; dose 12.0 mg/kg i.v.) was 22 ± 3 min and the “Number of Animals Dead” value [5] was 0. The “Number of Animals Protected” value [5] was 5, the “Number of Animals Convulsive” value [5] was 10 and the “Number of Animals LRR” value [5] was 10.

With `COCCc1ccc(OCC(O)CNC(C)Cc2ccc(O)cc2)c(Br)c1` (stereo not drawn) [EX 4, 3-[1-methyl-2-i4-hydroxyphenyl)-ethylaminol-1-[4-(2-methoxyethyl)-2-bromophenoxy]-propanol-2] the “A-A EFFECT IN NUMBER OF ANIMALS” value ([1]; dose 0.3 mg/kg i.v.) was 3/6, the “A-A EFFECT IN NUMBER OF ANIMALS” value ([1]; dose 1.0 mg/kg i.v.) was 6/6 and the “LOWEST FREQUENCY” value ([1]; dose 0.3 mg/kg i.v.) was 31±14%. For the same molecule, the “LOWEST FREQUENCY” value ([1]; dose 1.0 mg/kg i.v.) was 6±3%, the ASYSTOLE ([1]; dose 0.3 mg/kg i.v.) was 27 ± 1 min and the ASYSTOLE ([1]; dose 1.0 mg/kg i.v.) was 41 ± 3 min. The V-FIB ([1]; dose 0.3 mg/kg i.v.) was 19 ± 1 min and the V-FIB ([1]; dose 1.0 mg/kg i.v.) was 31±3 (N=4) min.

With `COCc1ccc(OCC(O)CNCCc2ccccc2)cc1` (stereo not drawn) [Ex. 7] the TD50 at 20 min ([2]; sc) was ~100 mg/kg, the ED50 [3] was ~50 mg/kg and the ED50 (ectopics) was 4 mg/kg. For the same molecule, the ED90 (ectopics) was 8 mg/kg and the TD50 ([4]; dog, iv) was > 8 mg/kg.

With `COCCc1ccc(OCC(O)CNCCCCc2ccccc2)cc1` (stereo not drawn) [Ex. 11, 3-(4-phenylbutylamino)-1-[4-(2-methoxyethyl)phenoxy]-propanol--2] the TD50 at 20 min [2, 6] was > 50 mg/kg, the ED50 [3] was 15 mg/kg and the ED50 (ectopics) was 1 mg/kg. It also gave an ED90 (ectopics) of 2 mg/kg and a TD50 [4, 7] of 8 mg/kg.

For `COCCc1ccc(OCC(O)CNCCc2ccccc2)c(Br)c1` (stereo not drawn) [EX 3], the “A-A EFFECT IN NUMBER OF ANIMALS” value ([1]; dose 0.3 mg/kg i.v.) was 5/6, the “A-A EFFECT IN NUMBER OF ANIMALS” value ([1]; dose 1.0 mg/kg i.v.) was 6/6 and the “LOWEST FREQUENCY” value ([1]; dose 0.3 mg/kg i.v.) was 26±7%. The “LOWEST FREQUENCY” value ([1]; dose 1.0 mg/kg i.v.) was 13±7%, the ASYSTOLE ([1]; dose 0.3 mg/kg i.v.) was 34 ± 1 min and the ASYSTOLE ([1]; dose 1.0 mg/kg i.v.) was 41 ± 2 min. For the same molecule, the V-FIB ([1]; dose 0.3 mg/kg i.v.) was 27 ± 1 min and the V-FIB ([1]; dose 1.0 mg/kg i.v.) was 35 ± 2 min.

From patent EP0007294A2, “Membrane stabilizing compounds having beta-receptor blocking activity, their preparation, method for treatment of arrhythmic conditions, and pharmaceutical preparations containing same” (priority 1978, dated 1980)
